Experimental data: patent publication US8101766B2, “Crystalline form of a biphenyl compound” (Theravance, Inc., priority 2004, dated 2012)

Legend:
[1] = biological target: T1, human M2 muscarinic receptor (Homo sapiens, UniProt P08172); assay: Radioligand binding assay for muscarinic receptors (hM2); conditions: [3H]-NMS displacement, CHO cell membranes
T1 construct: expressed in transfected cells
T1 sequence (P08172 1-466): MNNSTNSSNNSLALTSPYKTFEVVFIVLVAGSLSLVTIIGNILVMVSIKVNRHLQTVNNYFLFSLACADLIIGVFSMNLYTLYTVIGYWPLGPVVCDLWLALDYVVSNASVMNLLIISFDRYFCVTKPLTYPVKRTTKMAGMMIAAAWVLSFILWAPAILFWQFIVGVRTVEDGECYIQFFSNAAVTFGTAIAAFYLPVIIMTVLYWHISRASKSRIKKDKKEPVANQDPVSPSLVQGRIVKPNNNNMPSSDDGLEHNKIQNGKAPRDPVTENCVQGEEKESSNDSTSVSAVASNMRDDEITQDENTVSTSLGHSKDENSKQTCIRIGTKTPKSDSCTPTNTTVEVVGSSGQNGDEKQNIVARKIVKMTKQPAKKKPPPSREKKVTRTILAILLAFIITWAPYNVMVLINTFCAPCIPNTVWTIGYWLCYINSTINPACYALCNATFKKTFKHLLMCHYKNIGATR
Method: The cells were grown in a 5% CO2, 37° C. incubator and lifted with 2 mM EDTA in dPBS. Cells were collected by 5 minute centrifugation at 650×g, and cell pellets were either stored frozen at −80° C. or membranes were prepared immediately for use. For membrane preparation, cell pellets were resuspended in lysis buffer and homogenized with a Polytron PT-2100 tissue disrupter (Kinematica AG; 20 seconds×2 bursts). Crude membranes were centrifuged at 40,000×g for 15 minutes at 4° C. The membrane pellet was then resuspended with re-suspension buffer and homogenized again with the Polytron tissue disrupter. […] All membranes were stored frozen in aliquots at −80° C. or used immediately.
The membranes were briefly homogenized using a Polytron tissue disruptor (10 seconds) prior to assay plate addition. […] Filter plates were rinsed three times with wash buffer (10 mM HEPES) to remove unbound radioactivity. […] Binding data were analyzed by nonlinear regression analysis with the GraphPad Prism Software package (GraphPad Software, Inc., San Diego, Calif.) using the one-site competition model.

[2] = biological target: T2, hM2 receptor (Homo sapiens, UniProt P08172); assay: Blockade of oxotremorine-stimulated [35S]GTPγS binding in CHO-K1 cells expressing the hM2 receptor; format: biochemical
T2 construct: expressed in transfected cells
T2 sequence (P08172 1-466): T1 sequence (P08172 1-466)
Method: A. Blockade of Agonist-Mediated [^35S]GTPγS Binding
The functional potency of a test compound was determined by measuring the ability of the compound to block oxotremorine-stimulated [^35S]GTPγS binding in CHO-K1 cells expressing the hM2 receptor.
At the time of use, frozen membranes were thawed and then diluted in assay buffer with a final target tissue concentration of 5-10 μg protein per well. The membranes were briefly homogenized using a Polytron PT-2100 tissue disrupter and then added to the assay plates.
The assay plates were then incubated at 37° C. for 60 minutes. The assay plates were filtered over 1% BSA-pretreated GF/B filters using a PerkinElmer 96-well harvester. The plates were rinsed with ice-cold wash buffer for 3×3 seconds and then air or vacuum dried. Microscint-20 scintillation liquid (50 μL) was added to each well, and each plate was sealed and radioactivity counted on a Topcounter (PerkinElmer). Data were analyzed by nonlinear regression analysis with the GraphPad Prism Software package (GraphPad Software, Inc., San Diego, Calif.) using the non-linear regression, one-site competition equation. The Cheng-Prusoff equation was used to calculate the Ki, using the IC50 values of the concentration-response curve for the test compound and the oxotremorine concentration in the assay as the KD and [L], ligand concentration, respectively.

[3] = biological target: T3, human M3 muscarinic receptor (Homo sapiens, UniProt P20309); assay: Radioligand binding assay for muscarinic receptors (hM3); conditions: [3H]-NMS displacement, CHO cell membranes
T3 construct: expressed in transfected cells
T3 sequence (P20309 whole entry): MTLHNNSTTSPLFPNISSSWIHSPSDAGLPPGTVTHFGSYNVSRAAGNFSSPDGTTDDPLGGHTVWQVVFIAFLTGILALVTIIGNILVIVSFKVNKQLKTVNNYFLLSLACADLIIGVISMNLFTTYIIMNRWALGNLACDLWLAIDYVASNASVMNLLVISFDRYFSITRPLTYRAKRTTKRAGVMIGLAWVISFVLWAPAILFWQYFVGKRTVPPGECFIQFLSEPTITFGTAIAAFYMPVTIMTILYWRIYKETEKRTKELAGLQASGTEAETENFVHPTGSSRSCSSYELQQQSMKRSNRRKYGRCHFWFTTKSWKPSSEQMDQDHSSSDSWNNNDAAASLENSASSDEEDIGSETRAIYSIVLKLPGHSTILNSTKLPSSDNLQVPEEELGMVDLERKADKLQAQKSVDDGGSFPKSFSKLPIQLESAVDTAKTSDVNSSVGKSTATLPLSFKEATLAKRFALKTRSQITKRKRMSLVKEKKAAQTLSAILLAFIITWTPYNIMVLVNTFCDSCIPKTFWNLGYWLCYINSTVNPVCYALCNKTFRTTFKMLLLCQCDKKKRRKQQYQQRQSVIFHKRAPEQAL
Method: Cell Culture and Membrane Preparation from Cells Expressing Human M1, M2, M3 and M4 Muscarinic Receptors
CHO cell lines stably expressing cloned human hM1, hM2, hM3 and hM4 muscarinic receptor subtypes, respectively, were grown to near confluency in HAM's F-12 media supplemented with 10% FBS and 250 μg/mL Geneticin. The cells were grown in a 5% CO2, 37° C. incubator and lifted with 2 mM EDTA in dPBS. Cells were collected by 5 minute centrifugation at 650×g, and cell pellets were either stored frozen at −80° C. or membranes were prepared immediately for use. […] The protein concentration of the membrane suspension was determined by the method described in Lowry et al., 1951, Journal of Biochemistry, 193, 265. […]
Radioligand binding assays for cloned human muscarinic receptors were performed in 96-well microtiter plates in a total assay volume of 100 μL. […] Filter plates were rinsed three times with wash buffer (10 mM HEPES) to remove unbound radioactivity. […] The plates were then counted in a PerkinElmer Topcount liquid scintillation counter (PerkinElmer Inc., Wellesley, Mass.). Binding data were analyzed by nonlinear regression analysis with the GraphPad Prism Software package (GraphPad Software, Inc., San Diego, Calif.) using the one-site competition model. […]

Measured: Ki

COc1cc(NC(=O)CCN2CCC(OC(=O)Nc3ccccc3-c3ccccc3)CC2)c(Cl)cc1CNC[C@H](O)c1ccc(O)c2[nH]c(=O)ccc12 [compound of formula I, biphenyl-2-ylcarbamic acid 1-[2-(2-chloro-4-{[(R)-2-hydroxy-2-(8-hydroxy-2-oxo-1,2-dihydroquinolin-5-yl)ethylamino]methyl}-5-methoxyphenylcarbamoyl)ethyl]piperidin-4-yl ester]
< 10 nM: all assays above
